One data set in a line: cells. As to conditions: Homo sapiens, Hep3B.
For the next data set, the system named is Cynomolgus monkey. In words: Anti-leukemia activity in cynomolgus monkey assessed as dose required to cause 10 fold increase in plasma EPO level.
Another data set concerns the target Egl nine homolog 1 (Homo sapiens, UniProt Q9GZT9).
Data set [1] is described as follows: Partition coefficient, Kp of compound in rat liver to plasma. Type of data set: ADME, cell-free. As to conditions: liver and plasma.
Data set [2] in a line: Toxicity in rat assessed as increase in AST level […] at 10 mg/kg, po measured on day 4 (reference value: 71 IU/L). As to conditions: in vivo, 96 h, time 4 day. It is filed as organism-based.
The nature of data set [3]: Toxicity in rat assessed as increase in ALT level […] at 10 mg/kg, po measured on day 4 (reference value: 38 IU/L). Type of data set: organism-based. The settings on record: in vivo, 96 h, time 4 day.
The nature of data set [4]: AUC (0 to 24 hrs) in rat at 10 mg/kg, po measured on day 4. Type of data set: ADME, organism-based. The settings on record: in vivo, time 4 day.
Data set [5] can be described thus: Toxicity in rat assessed as increase in AST level […] at 100 mg/kg, po measured on day 4 (reference value: 71 IU/L). It is filed as organism-based. The settings on record: in vivo, 96 h, time 4 day.
Data set [6] is described as follows: Toxicity in rat assessed as increase in ALT level […] at 100 mg/kg, po measured on day 4 (reference value: 38 IU/L). Type of data set: organism-based. The settings on record: in vivo, 96 h, time 4 day.
Data set [7] can be described thus: AUC (0 to 24 hrs) in rat at 100 mg/kg, po measured on day 4. It is filed as ADME, organism-based. The settings on record: in vivo, time 4 day.
For a further data set, the system named is Rattus norvegicus. The data set can be described thus: Hematopoietic effect on adenine-induced renal anemia po dosed rat model assessed as increase in hemoglobin level administered for 4 days and measured on day 5,7,9,11 and 14. Type of data set: functional, organism-based. The settings on record: dose 0.3-3 mg/kg, time 4.0 day.
Data set [8] is described as follows: Lipophilicity, logD of the compound. Type of data set: physicochemical. As to conditions: octanol/water.
Data set [9] in a line: Metabolic stability in rat plasma assessed as parent compound remaining. It is filed as ADME, cell-free.
Data set [10] in a line: Cmax in rat at 3 mg/kg, po measured on day 4. It is filed as ADME, organism-based. As to conditions: in vivo, time 4 day.
Data set [11] is described as follows: AUC in rat at 3 mg/kg, po measured on day 4. It is filed as ADME, organism-based. The settings on record: in vivo, time 4 day.
Data set [12] in a line: Half life in rat at 3 mg/kg, po measured on day 4. Type of data set: ADME, organism-based. As to conditions: in vivo, time 4 day.
A short description of data set [13]: Plasma protein binding in rat assessed as free fraction. Type of data set: ADME, cell-free.
A short description of data set [14]: AUC (0 to 24 hrs) in rat at 0.54 mg/kg, po measured for 14 days. It is filed as ADME, organism-based. As to conditions: in vivo, time 14 day.
Data set [15] can be described thus: AUC (0 to 24 hrs) in rat at 10 mg/kg, po measured for 14 days. The settings on record: in vivo, time 14 day. Type of data set: ADME, organism-based.
Data set [16] in a line: Toxicity in rat assessed as NOAEL at 10 mg/kg, po measured for 14 days. Type of data set: organism-based. The settings on record: in vivo, 336 h, time 14 day.

pEC50, pIC50: −log10 of the molar value.

Chain of Egl nine homolog 1 (Q9GZT9 whole entry): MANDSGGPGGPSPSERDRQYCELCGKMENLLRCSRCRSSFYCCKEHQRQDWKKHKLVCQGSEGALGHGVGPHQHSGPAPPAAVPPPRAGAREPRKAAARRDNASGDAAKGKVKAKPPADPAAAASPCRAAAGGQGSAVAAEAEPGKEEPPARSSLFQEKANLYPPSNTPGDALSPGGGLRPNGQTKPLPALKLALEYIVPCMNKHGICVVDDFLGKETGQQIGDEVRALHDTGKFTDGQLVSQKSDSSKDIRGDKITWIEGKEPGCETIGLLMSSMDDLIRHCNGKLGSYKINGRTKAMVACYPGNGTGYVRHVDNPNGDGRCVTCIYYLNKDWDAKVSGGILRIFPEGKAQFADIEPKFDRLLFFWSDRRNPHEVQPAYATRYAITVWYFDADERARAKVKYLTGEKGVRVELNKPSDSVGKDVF
Description for Egl nine homolog 1: Inhibition of HIF-PHD2 (unknown origin)
Description for cells: Induction of EPO production in human Hep3B cells

In the case of `CCCc1ccc(N2CCC(Cc3nc(C)c(O)c(C(=O)NCC(=O)O)n3)CC2)cc1`, the pEC50 (as a rule, the negative decadic logarithm of the EC50, by convention in mol/L) in the data set “cells” is 5.80.

`Cc1nc(CC2CCN(c3ccc(Cl)cc3)CC2)nc(C(=O)NCC(=O)O)c1O`: in “cells”, the pEC50 was 5.16.

Regarding `Cc1nc(CC2CCN(c3ccc(Cc4ccc(CO)cc4)cc3)CC2)nc(C(=O)NCC(=O)O)c1O`, in the data set “cells”, the pEC50 is 5.57.

Take `Cc1nc(Cc2cnc(-c3ccc(C(C)(C)C)cc3)nc2)nc(C(=O)NCC(=O)O)c1O`: the pEC50 in “cells” is 5.72.

In “cells”, `Cc1nc(CC2CCN(c3ccc(C(C)(C)C)cc3)C2)nc(C(=O)NCC(=O)O)c1O` (stereo not given) gave a pEC50 of 4.57.

Consider `Cc1nc(Cc2ccc(-c3ccccc3)cc2)nc(C(=O)NCC(=O)O)c1O`, for which the EC10 in the data set with Cynomolgus monkey was 2.2 mg/kg. In addition, the pEC50 in the data set “cells” was 5.08.

In the case of `Cc1nc(CCCCC2CCN(c3ccc(C(C)(C)C)cc3)CC2)nc(C(=O)NCC(=O)O)c1O`, the pEC50 in “cells” was 4.96.

Regarding `Cc1nc(CC2CCN(c3ccc(Cc4ccc(C(C)(C)CO)cc4)cc3)CC2)nc(C(=O)NCC(=O)O)c1O`, the pEC50 in “cells” was 5.49.

On to `Cc1nc(CC2CCN(c3cccc(C(C)(C)C)c3)CC2)nc(C(=O)NCC(=O)O)c1O`, for which the pEC50 in “cells” was 5.20.

On to `Cc1nc(Cc2ccc(-c3ccccc3)cc2)nc(C(=O)NCC(=O)O)c1C`, for which, on Egl nine homolog 1, the pIC50 (in general, −log10 of the IC50, conventionally taken in molar units) is under 4.00.

As to `Cc1nc(CC2CCN(c3ccc(-c4ccc(C(C)(C)CO)cc4)cc3)CC2)nc(C(=O)NCC(=O)O)c1O`, the pEC50 in “cells” is 6.08.

`Cc1nc(CC2CCN(c3ccc(F)cc3)CC2)nc(C(=O)NCC(=O)O)c1O`: in the data set “cells”, the pEC50 is 5.00.

In “cells”, `Cc1nc(Cc2ccc(-c3ccccc3)cc2)nc(C(=O)N[C@@H](C)C(=O)O)c1O` had a pEC50 of 4.85.

Take `Cc1nc(CC2CCN(c3ccc(-c4ccc(CC(C)O)cc4)cc3)CC2)nc(C(=O)NCC(=O)O)c1O` (racemic): in [1], the Kp (as a rule, the ratio of the level in a tissue or fluid to that in plasma or blood) came out at 1.5. The pEC50 in the data set “cells” was 6.26.

Consider `Cc1nc(CC2CCCN(c3ccc(C(C)(C)C)cc3)CC2)nc(C(=O)NCC(=O)O)c1O` (stereo not given), for which the pEC50 in “cells” is 4.72.

Take `Cc1nc(CC2CCN(c3ccc(-c4ccccc4)cc3)CC2)nc(C(=O)NCC(=O)O)c1O`: the EC10 in the data set with Cynomolgus monkey was found to be 1.1 mg/kg. This compound had a pEC50 in the data set “cells” of 6.38.

Regarding `Cc1ccc(N2CCC(Cc3nc(C)c(O)c(C(=O)NCC(=O)O)n3)CC2)cc1`, in the data set “cells”, the pEC50 was 5.00.

As to `Cc1nc(Cc2ccc(-c3ccc(C(C)(C)C)cc3)nc2)nc(C(=O)NCC(=O)O)c1O`, the pEC50 in “cells” is 6.00.

`Cc1nc(CC2CCN(c3cccc(Cc4ccccc4)c3)CC2)nc(C(=O)NCC(=O)O)c1O` gave a pEC50 in “cells” of 5.41.

In the data set “cells”, `Cc1nc(Cc2cnc(-c3ccc(C(C)(C)C)cc3)s2)nc(C(=O)NCC(=O)O)c1O` showed a pEC50 of 5.51.

`CC(C)(C)c1ccc(N2CCC(Cc3nc(C(=O)NCC(=O)O)c(O)c(C(F)F)n3)CC2)cc1` showed a pEC50 in “cells” of 4.72.

Regarding `Cc1nc(CC2CCN(c3ccc(-c4ccc(C[C@@H](C)O)cc4)cc3)CC2)nc(C(=O)NCC(=O)O)c1O`, in the data set with Cynomolgus monkey, the EC10 amounted to 2.4 mg/kg. The Activity in data set [2] was 77 IU/L; in data set [3], 40 IU/L; in data set [5], 103 IU/L; in [6], 54 IU/L. Moreover, the AUC (as a rule, the area under the concentration-time curve, a measure of exposure) at 96 h in [4] amounted to 15500 ng·h/mL; in [7], 197000 ng·h/mL. In “cells”, the pEC50 was 6.36.

For the compound `Cc1nc(CC2CCN(c3ccc(-c4ccc(C[C@H](C)O)cc4)cc3)CC2)nc(C(=O)NCC(=O)O)c1O`, the EC10 in the data set on Cynomolgus monkey was 3.5 mg/kg. The Activity in data set [2] was 79 IU/L; in data set [3] it was 40 IU/L; in [5], 97 IU/L; in data set [6], 52 IU/L; with Rattus norvegicus, “Dose-Dependent Effect”; in data set [16], “Non-Toxic”. The exposure (AUC) at 96 h in [4] came out at 16200 ng·h/mL; in [7], 162000 ng·h/mL; in data set [11], 4320 ng·h/mL. In data set [8], the logD (in general, the decadic logarithm of the distribution of all forms, ionised or not, between an organic phase and buffer at a given pH) was 1.2. Besides, the Stability in data set [9] was determined as 79%. For the same compound, the peak level in data set [10] (Cmax) was 860 ng/mL. Also, the half-life (as a rule, the time in which the quantity being followed falls by half) in data set [12] is 1 h. Also, the Fu in data set [13] came to 0.73%. Also, the AUC at 336 h in [14] turned out to be 600 ng·h/mL; in data set [15], 88500 ng·h/mL. Moreover, the pEC50 in “cells” is 6.31.

With `CCc1nc(Cc2ccc(-c3ccccc3)cc2)nc(C(=O)NCC(=O)O)c1O`, in “cells”, the pEC50 is 4.80.

Consider `Cc1nc(CC2CCN(c3ccc(-c4ccc(CO)cc4)cc3)CC2)nc(C(=O)NCC(=O)O)c1O`, for which, in the data set “cells”, the pEC50 was 6.33.

On to `Cc1nc(CC2CCN(c3ccc(Cc4ccc(CC(C)O)cc4)cc3)CC2)nc(C(=O)NCC(=O)O)c1O` (stereo not given), for which the pEC50 in the data set “cells” is 5.68.

Compound `Cc1nc(CC2CCN(c3ccc(-c4ccc(C(=O)N(C)C)cc4)cc3)CC2)nc(C(=O)NCC(=O)O)c1O` gave a pEC50 in “cells” of 6.08.

Compound `Cc1nc(CC2CCN(c3ccc(Cc4ccc(C(=O)N(C)C)cc4)cc3)CC2)nc(C(=O)NCC(=O)O)c1O` showed a pEC50 in the data set “cells” of 5.24.

Regarding `CSc1nc(CC2CCN(c3ccc(C(C)(C)C)cc3)CC2)nc(C(=O)NCC(=O)O)c1O`, the pEC50 in the data set “cells” is 5.52.

In turn, `Cc1nc(CCC2CCN(c3ccc(C(C)(C)C)cc3)CC2)nc(C(=O)NCC(=O)O)c1O` showed a pEC50 in the data set “cells” of 4.89.

Take `Cc1nc(CCCC2CCN(c3ccc(C(C)(C)C)cc3)CC2)nc(C(=O)NCC(=O)O)c1O`: in the data set “cells”, the pEC50 was 4.96.

In the data set “cells”, `Cc1nc(Cc2ccc(-c3ccc(C(C)(C)C)cc3)cn2)nc(C(=O)NCC(=O)O)c1O` gave a pEC50 of 5.72.

In the data set “cells”, `Cc1nc(CC2CCN(c3ccc(C(F)(F)F)cc3)CC2)nc(C(=O)NCC(=O)O)c1O` showed a pEC50 of 5.26.

In the case of `CCCCc1ccc(N2CCC(Cc3nc(C)c(O)c(C(=O)NCC(=O)O)n3)CC2)cc1`, the negative logarithm of the EC50 (pEC50) in “cells” is 5.80.

For `Cc1nc(CC2CCN(c3ccc(Cc4ccccc4)cc3)CC2)nc(C(=O)NCC(=O)O)c1O`, the EC10 with Cynomolgus monkey amounted to 0.5 mg/kg. This compound returned a Kp in data set [1] of 9.6. In the data set “cells”, this compound gave a negative-log EC50 (pEC50) of 6.00.

Turning to `Cc1nc(CC2CCN(c3ccc(C(C)(C)C)cc3)CC2)nc(C(=O)NCC(=O)O)c1O`, the pEC50 in “cells” was 5.82.

(Values after ChEMBL document CHEMBL6127012, “Discovery of DS-1093a: An oral hypoxia-inducible factor prolyl hydroxylase inhibitor for the treatment of renal anemia” (Bioorg Med Chem Lett, 2024).)
